Data from patent US5521315A, “Olefin substituted long chain compounds” (priority 1993, dated 1996).
“And” between values parts separate entries of the source, which are not always exact repeats. Equal entries are not always repeated. “Also recorded” adds a separate entry of the source. Where two headings read alike, the source gives them in different places.

Experiments:
[1] = test system: PBMC in mixed lymphocyte assay culture; experiment: Percent viable cells in mixed lymphocyte assay culture after six days; format: cell-based, human; details: for cytotoxicity in mixed lymphocyte assay culture: 100 μM, six days of culture
human lymphocytes [2] = experiment: CD3 blastogenesis assay; format: cell-based; details: IL-2 or CD3 blastogenesis; FIG. 13
Procedure: (§1) The CD3 blastogenesis assay is virtually identical to the IL-2 blastogenesis assay described herein, except a human anti-CD3 monoclonal antibody (4 μg/ml, Boehinger Manheimm) is used instead of human IL-2 and the cells are incubated for only three days.
as §1, with “This example illustrates various IC50 values of five inventive compounds as determined by an IL-2 blastogenesis assay described in example 44 above or a CD3 blastogenesis assay. The” for “The”

mast cell degranulation = experiment: Serotonin release assay (inhibition of mast cell degranulation); format: cell-based; parameters: INCORP / TOTAL: unit not given here; details: 50 μM; for RELEASE-SPONT: average corrected for spontaneous release; for AVERAGE % RELEASE: average of duplicates; for inhibition at 50 µM: Mast cell
Text: A serotonin release assay is utilized to study the utility of the inventive compounds for treatment of asthma and allergy. […] This assay measures mast cell degranulation, which is an early phase reaction to allergen challenge. Mast cells grown in tissue culture are first loaded with ^3 H serotonin, which is incorporated into the granules in the cells. The mast cells are sensitized with antigen specific monoclonal IgE, and then triggered to degranulate with the specific antigen (dinitorphenolbound to BSA (DNP)). When the cells degranulate, ^3 H Serotonin is released into the medium, and can be measured directly. The ability of the inventive compounds to inhibit the degranulation response is determined by the decrease in ^3 H Serotonin released in the presence of drug and is represented as % INHIBITION.
Specifically, the serotonin release assay seeds 2×10^5 cells in 0.5 ml medium in duplicate for spontaneous release, IgE+DNP, IgE+DNP+EtOH (vehicle control), and inventive compounds. […] The cells are incubated for 18 hours at 37° C. in 5% CO2, washed twice with 0.5 ml Isotonic Buffer (25 mM disodium PIPES pH 7.1,100 mM NaCl, 5 mM KCl, 5 mM glucose, 0.4 mM MgCl2, 1mM CaCl2, 0.1% BSA), and sterile filtered. 250 μl Isotonic Buffer is added per well and the plates are equilibrated in an incubator for about 10 min. Drug is added and cells are activated with 40 ng/ml DNP-BSA (1 mg/ml Diluted 1:200 in Isotonic Buffer) for 45 minutes using 2 μl/250 μl. Spontaneous release is determined in incubated cells with 250 μl Isotonic Buffer for 45 minutes and the reaction is stopped by removing supernatant and centrifuging at ~4000 rpm in microfuge for 15 seconds to remove any detached cells. Released radiolableled serotonin is counted. To determine amount of ^3 H-serotonin incorporated into the cells, (a) remove Isotonic Buffer and lyse cells by adding 250 μl 1% Triton-X100 in PBS, (b) add to 5 ml scintillation fluid, (c) wash 2× with Triton/PBS, and (d) add washes to scintillation tube. Percent serotonin release is calculated by dividing the amount of released serotonin by the sum of incorporated plus released serotonin and correcting for spontaneous released serotonin. Compound inhibition is calculated by dividing the percent serotonin release in the presence of a compound by the percent serotonin release in the absence of the compound.
This assay is described above and provides an in vitro model for an allergy and asthma therapeutic product.

[3] = test system: CMV promoter activity in transformed (adenovirus) cells; experiment: CMV promoter assay (gene transcription and translation; cytotoxicity in transformed cells); format: cell-based
Text: (§2) FIG. 18 illustrates data regarding proliferative activity of various inventive compounds for inducting CMV promoter activity. The CMV promoter assay measures gene transcription and translation activity wherein any active compounds will have cytotoxic activity to inhibit cellular protein synthesis machinery in transformed (adenovirus) cells.
as §2, with “This example” for “FIG. 18”

[4] = test system: PBMC (peripheral blood mononuclear cells); experiment: Two-way mixed lymphocyte reaction (MLR), proliferation of PBMC to allogeneic stimulation; format: cell-based, human; details: for mixed lymphocyte reaction activity: FIGS. 1 and 2
Text: Various in vitro assays can be used to measure effects of the inventive compounds to module immune activity and have antitumor activity using a variety of cellular types. For example, a mixed lymphocyte reaction (MLR) provides a valuable screening tool to determine biological activity of each inventive compound. In the MLR, PBMCs (peripheral blood mononuclear cells) are obtained by drawing whole blood from healthy volunteers in a heparinized container and diluted with an equal volume of hanks balanced salt solution (HBSS). This mixture is layered on a […] density gradient, such as a Ficoll-Hypaque® gradient (specific gravity 1.08), and centrifuged at 1000×g for 25 minutes at room temperature or cooler. PBMC are obtained from a band at a plasma-Ficoll interface, separated and washed at least twice in a saline solution, such as HBSS. Contaminating red cells are lysed, such as by ACK lysis for 10 min at 37° C., and the PBMCs are washed twice in HBSS. The pellet of purified PBMCs is resuspended in complete medium, such as RPMI 1640 plus 20% human inactivated serum. Proliferative response of PBMC to allogeneic stimulation is determined in a two-way MLR performed in a 96-well microliter plate. Briefly, approximately 10^5 test purified PBMC cells in […] complete medium are co-cultured with approximately 10^5 autologous (control culture) or allogeneic (stimulated culture) PBMC cells, wherein the allogeneic cells are from HLA disparate individuals. Varying doses of compounds (drug) are added at the time of addition of cells to the microtiter plate. The cultures are incubated for 6 days at 37° C. in a 5% CO2 atmosphere. At the conclusion of the incubation tritiated thymidine is added (for example, […] of 40 to 60 Ci/mmole) and proliferation determined by liquid scintillation counting.
This example illustrates a mixed lymphocyte reaction assay of inventive compounds by showing the IC50 value of each compound in this assay and a dose response of several compounds to illustrate an IC50 determination.

human lymphocytes [5] = experiment: IL-2 induced blastogenesis assay; format: cell-based; details: human IL-2, six days; FIG. 12
Procedure: (§3) Briefly, human lymphocytes are obtained from blood from normal volunteers and plated into wells at 2×10^5 cells/well. Human IL-2 ([…] or 5 μl of a 100 U/ml solution) and drug at various concentrations are added to each well. The cells are incubated for six days and then proliferation is determined by a standard tritiated thymidine incorporation procedure. […] However, both CT1406 and CT1442 were active, as is shown by IC50 values in FIG. 12.
as §3, with “This example illustrates the effects of four inventive compounds to inhibit proliferation of human lymphocytes in an IL-2 induced blastogenesis in vitro assay. […] Briefly,” for “Briefly,”, “cells am” for “cells are”

murine thymocyte = experiment: Murine thymocyte stimulated by ConA and IL-2 (T cell immune suppression); format: cell-based; details: FIGS. 8 and 9
Procedure: A thymocyte costimulator assay is conducted to evaluate the inventive compounds to inhibit activation and proliferation of thymocytes caused by stimulation with Con A and interleukin-1 (IL-1), or […]. Thymuses are obtained from mice (e.g., female Balb/C mice) and the thymuses are removed and dissociated into culture media (e.g., RPMI 1640 without serum supplementation). The dissociated thymus tissue and cell suspension is transferred to centrifuge tubes and allowed to settle, washed with HBSS and resuspended in serum-supplemented culture media (e.g., RPMI 1640 with 10% fetal calf serum). Any contaminating red cells are lysed, and viable cells are resuspended and counted. Thymocytes are plated (e.g., 96-well plates at a density of 2×10^5 cells/well) and a stimulating agent, such as Con A, IL-1 (e.g., IL-1α) or IL-2 is added to the well. The cells are incubated for 4 days at 37° C. On the fourth day, the cells are pulsed with tritiated thymidine and cell proliferation determined. Inventive compounds are added at the time of stimulating agent addition.
A third assay measures an ability of an inventive compound to inhibit IL-2-induced proliferation of murine thymocytes. Thymus glands are obtained from 4-6 week old mice and plated as a single cell suspension into flat bottomed wells in RPMI 1640 medium supplemented with 10% fetal calf serum. The inventive compounds are added to appropriate wells and the cells are incubated for 1-2 hrs. Concanavilin A (ConA, 0.25 mg/ml) and […] (20 ng/ml) are added and the plates are incubated for 4 days. Cell proliferation is determined as above.
FIG. 8 compares T cell immune suppression data of thirteen inventive compounds by comparing their IC50 values in a murine thymocyte stimulated by ConA and IL-2 in vitro model.

| Compound | cytotoxicity in mixed lymphocyte assay culture [1] | immune suppressing activity in blastogenesis assays (human lymphocytes [2]) | activity in serotonin release assay (mast cell degranulation) | RELEASE-SPONT (mast cell degranulation; Table 4) | AVERAGE % RELEASE (mast cell degranulation; Table 4) | inhibition at 50 µM (mast cell degranulation; Table 4) | IC50 [3] | mixed lymphocyte reaction activity [4] | therapeutic window ([1]; cytotoxicity at 100 μM vs MLR IC50) | activity in IL-2 blastogenesis assay (human lymphocytes [5]) | IC50 ([4]; Homo sapiens, PBMC, FIGS. 3 and 4) | T cell immune suppressing activity (murine thymocyte) | % INHIBITION (mast cell degranulation; Table 4) | % RELEASE (mast cell degranulation; Table 4, duplicate wells) | INCORP (mast cell degranulation; Table 4, duplicate wells) | RELEASE (mast cell degranulation; Table 4, duplicate wells) | RELEASE X2 (mast cell degranulation; Table 4, duplicate wells) | TOTAL (mast cell degranulation; Table 4, duplicate wells) | % INHIBITION (mast cell degranulation; Table 5) | IC50 ([3]; Table 2, read-out: IC50) |
| --- | --- | --- | --- | --- | --- | --- | --- | --- | --- | --- | --- | --- | --- | --- | --- | --- | --- | --- | --- | --- |
| C=CCCCCCCCCCn1c(=O)c2c(ncn2C)n(C)c1=O [CT2501, 1-(10-undecenyl)-3,7-dimethylxanthine] | little or no cytotoxicity at concentrations well above its effective concentrations | significant immune suppressing activity | the two most potent compounds in this group | 2.50% | 19.06% | 68.8% | 200 µM | showed activity within dose ranges achievable in vivo |  |  |  |  |  |  |  |  |  |  |  |  |
| C=CCCCCCCCCCn1c(=O)c2[nH]cnc2n(C)c1=O [CT1406, 1-(10-undecenyl)-3-methylxanthine] | the most cytotoxic at 100 μM |  |  | 3.26% | 19.81% | 59.4% | 60 µM | the most potent activity | significant therapeutic window | active | 20 µM |  |  |  |  |  |  |  |  |  |
| CC/C=C/CCCCCn1c(=O)c2c(ncn2C)n(C)c1=O [CT2512, 1-(6-trans-nonenyl)-3,7-dimethylxanthine] |  | significant immune suppressing activity | appears to increase the activity; also recorded: increases the activity | 1.65% | 18.20% | 79.5% | 50 µM |  |  |  |  |  |  |  |  |  |  |  |  |  |
| CCCCC/C=C\C/C=C\CCCCCCCCn1c(=O)c2c(ncn2C)n(C)c1=O [CT1524, 1-(cis,cis-9,12-octadecadienyl)-3,7-dimethylxanthine] |  | significant immune suppressing activity | may be showing some toxicity at the concentration of 50 μM | 13.90% | 30.46% | -73.3% | 50 µM | showed activity within dose ranges achievable in vivo |  |  |  | potent immune suppressing activity |  |  |  |  |  |  |  |  |
| CC/C=C\CCCCCn1c(=O)c2[nH]cnc2n(C)c1=O [CT1442, 1-(6-cis-nonenyl)-3-methylxanthine] | little or no cytotoxicity at concentrations well above its effective concentrations |  | increases the activity | 2.94% | 19.49% | 63.4% |  | the most potent activity |  | active |  | potent immune suppressing activity |  |  |  |  |  |  |  |  |
| C=CCCCCn1c(=O)c2c(ncn2COC(=O)C(C)(C)C)n(C)c1=O [CT1441, 1-(5-hexenyl)-3-methyl-7-methylpivaloylxanthine] |  |  | appear to be quite potent |  | 15.92% |  |  |  |  |  |  | potent immune suppressing activity | 107.89% | 15.85% and 16.00% | 22567 and 24238 | 2125 and 2308 | 4250 and 4616 | 26817 and 28854 | 107.89% | 300 µM |
| Cyclosporin A [reference compound] |  | generally not very active |  |  |  |  |  |  |  | does not show significant activity |  |  |  |  |  |  |  |  |  |  |
